Measurements: ChEMBL document CHEMBL3880404, “Aminopyrimidines useful as kinase inhibitors” (2007)

Assays:
Aurora kinase A = target: T1, Aurora kinase A (Homo sapiens, UniProt O14965); assay: Inhibition of Aurora-2 (unknown origin) pre-incubated with substrate for 10 mins before enzyme addition and measured after 10 mins post enzyme addition using Kemptide substrate by pyruvate kinase and LDH based standard coupled enzyme assay
T1 sequence (O14965 whole entry): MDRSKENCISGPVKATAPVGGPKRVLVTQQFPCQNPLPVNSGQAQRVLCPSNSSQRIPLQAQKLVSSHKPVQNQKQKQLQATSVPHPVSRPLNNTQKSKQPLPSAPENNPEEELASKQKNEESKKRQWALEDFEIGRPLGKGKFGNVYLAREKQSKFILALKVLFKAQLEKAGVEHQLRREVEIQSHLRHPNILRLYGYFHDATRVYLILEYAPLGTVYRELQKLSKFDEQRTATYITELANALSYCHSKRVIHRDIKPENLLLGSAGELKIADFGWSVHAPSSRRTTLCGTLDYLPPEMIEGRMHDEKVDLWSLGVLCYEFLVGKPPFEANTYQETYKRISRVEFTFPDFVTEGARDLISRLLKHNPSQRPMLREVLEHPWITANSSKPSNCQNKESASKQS

[1] = target: Tyrosine-protein kinase JAK2 (Homo sapiens, UniProt O60674); assay: Inhibition of JAK2 (unknown origin) using poly(Glu)4Tyr substrate and [gamma-33P]-ATP incubated for 20 mins by Top-count assay
Chain of Tyrosine-protein kinase JAK2 (O60674 whole entry): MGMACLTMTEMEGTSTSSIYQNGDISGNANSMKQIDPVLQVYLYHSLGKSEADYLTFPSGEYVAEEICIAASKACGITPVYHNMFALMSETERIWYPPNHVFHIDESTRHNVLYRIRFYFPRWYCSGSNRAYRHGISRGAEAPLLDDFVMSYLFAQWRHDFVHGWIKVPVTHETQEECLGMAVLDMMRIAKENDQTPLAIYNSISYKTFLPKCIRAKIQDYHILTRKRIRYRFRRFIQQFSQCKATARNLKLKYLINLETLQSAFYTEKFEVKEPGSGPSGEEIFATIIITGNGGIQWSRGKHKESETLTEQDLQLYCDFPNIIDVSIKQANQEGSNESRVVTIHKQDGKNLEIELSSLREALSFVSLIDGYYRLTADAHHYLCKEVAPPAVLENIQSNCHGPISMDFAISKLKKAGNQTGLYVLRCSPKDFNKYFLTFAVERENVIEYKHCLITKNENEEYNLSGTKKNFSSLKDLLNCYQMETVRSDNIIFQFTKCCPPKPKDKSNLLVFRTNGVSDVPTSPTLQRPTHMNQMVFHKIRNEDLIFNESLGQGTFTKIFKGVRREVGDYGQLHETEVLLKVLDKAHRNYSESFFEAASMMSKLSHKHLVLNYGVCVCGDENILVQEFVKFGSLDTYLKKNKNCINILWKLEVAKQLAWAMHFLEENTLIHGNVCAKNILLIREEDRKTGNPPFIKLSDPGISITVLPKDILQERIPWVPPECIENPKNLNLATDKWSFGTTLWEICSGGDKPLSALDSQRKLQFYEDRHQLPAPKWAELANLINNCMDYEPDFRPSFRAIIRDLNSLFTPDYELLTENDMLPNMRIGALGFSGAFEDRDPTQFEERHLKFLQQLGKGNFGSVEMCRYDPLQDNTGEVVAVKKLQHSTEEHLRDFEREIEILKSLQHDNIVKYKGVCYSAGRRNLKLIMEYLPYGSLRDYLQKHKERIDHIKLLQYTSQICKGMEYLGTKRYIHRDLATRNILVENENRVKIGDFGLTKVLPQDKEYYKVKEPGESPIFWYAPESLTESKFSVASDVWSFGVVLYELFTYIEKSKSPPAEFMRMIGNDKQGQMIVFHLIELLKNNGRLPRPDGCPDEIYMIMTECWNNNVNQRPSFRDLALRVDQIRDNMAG

Aurora kinase B = Aurora kinase B (Homo sapiens, UniProt Q96GD4); assay: Inhibition of Aurora-1 (unknown origin) incubated for 10 mins using Kemptide substrate and [gamma-33P]-ATP measured after 3 hrs by liquid scintillation counting based radiometric assay
Chain of Aurora kinase B (Q96GD4 whole entry): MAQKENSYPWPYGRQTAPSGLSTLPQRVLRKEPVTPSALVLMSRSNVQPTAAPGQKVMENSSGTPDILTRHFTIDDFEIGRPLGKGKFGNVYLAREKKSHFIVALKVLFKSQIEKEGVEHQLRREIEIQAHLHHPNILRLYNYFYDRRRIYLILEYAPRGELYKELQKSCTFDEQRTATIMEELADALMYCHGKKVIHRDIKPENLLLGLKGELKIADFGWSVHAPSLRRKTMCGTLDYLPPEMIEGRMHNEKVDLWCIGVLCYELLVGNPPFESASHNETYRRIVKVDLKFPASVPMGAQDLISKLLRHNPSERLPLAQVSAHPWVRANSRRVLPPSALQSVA

[2] = target: T2, Tyrosine-protein kinase JAK3 (Homo sapiens, UniProt P52333); assay: Inhibition of JAK3 (unknown origin) using poly(Glu)4Tyr substrate and [gamma-33P]-ATP incubated for 20 mins by Top-count assay
T2 sequence (P52333 whole entry): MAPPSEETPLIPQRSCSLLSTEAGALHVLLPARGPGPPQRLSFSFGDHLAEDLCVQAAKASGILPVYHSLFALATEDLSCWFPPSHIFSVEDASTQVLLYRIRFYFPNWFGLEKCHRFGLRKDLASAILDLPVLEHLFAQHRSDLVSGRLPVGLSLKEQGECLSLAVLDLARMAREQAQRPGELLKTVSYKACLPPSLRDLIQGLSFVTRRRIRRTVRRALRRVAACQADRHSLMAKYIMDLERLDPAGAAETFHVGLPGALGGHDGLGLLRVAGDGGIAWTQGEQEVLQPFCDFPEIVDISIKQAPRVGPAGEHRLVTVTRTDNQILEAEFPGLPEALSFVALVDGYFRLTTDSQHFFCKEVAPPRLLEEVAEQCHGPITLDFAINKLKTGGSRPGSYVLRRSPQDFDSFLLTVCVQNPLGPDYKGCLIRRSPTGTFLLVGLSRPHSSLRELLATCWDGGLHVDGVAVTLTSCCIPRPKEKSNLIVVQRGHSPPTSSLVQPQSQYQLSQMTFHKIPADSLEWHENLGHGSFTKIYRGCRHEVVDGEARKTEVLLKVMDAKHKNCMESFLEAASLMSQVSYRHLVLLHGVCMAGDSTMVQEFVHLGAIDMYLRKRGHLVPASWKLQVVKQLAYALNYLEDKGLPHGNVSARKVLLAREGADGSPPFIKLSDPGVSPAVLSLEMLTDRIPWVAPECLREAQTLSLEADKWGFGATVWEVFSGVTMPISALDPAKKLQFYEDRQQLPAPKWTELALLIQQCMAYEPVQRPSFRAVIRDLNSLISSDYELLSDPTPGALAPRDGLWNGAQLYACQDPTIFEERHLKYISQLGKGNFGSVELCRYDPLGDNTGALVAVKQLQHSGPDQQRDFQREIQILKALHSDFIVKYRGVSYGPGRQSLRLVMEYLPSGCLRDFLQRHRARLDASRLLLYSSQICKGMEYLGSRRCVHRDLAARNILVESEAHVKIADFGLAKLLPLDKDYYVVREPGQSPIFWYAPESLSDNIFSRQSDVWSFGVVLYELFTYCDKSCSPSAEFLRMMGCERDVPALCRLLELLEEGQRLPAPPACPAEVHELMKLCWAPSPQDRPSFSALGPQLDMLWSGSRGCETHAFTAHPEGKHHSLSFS

Ki (Aurora kinase B) [nM] | Ki [2] [nM] | SMILES | Ki (Aurora kinase A) [nM] | Ki [1] [nM]
 |  | Cc1cc(Nc2cc(N3CC(F)(C4CC4)C3)nc(O[C@H]3CCN(C(=O)c4cc(Cl)ccc4F)C3)n2)n[nH]1 [MK-6592] | < 10 | < 100
< 500 | < 500 | Cc1cc(Nc2cc(N3CCC3)nc(O[C@H]3CCN(C(=O)OC(C)(C)C)C3)n2)[nH]n1 |  | 
< 500 | < 500 | Cc1cc(Nc2cc(N3CC(F)(C4CC4)C3)nc(O[C@H]3CCN(C(=O)OC(C)(C)C)C3)n2)[nH]n1 | < 10 | < 100
